Laboratory results taken from ChEMBL document CHEMBL1141527, “Design, synthesis, and thrombin-inhibitory activity of pyridin-2-ones as P2/P3 core motifs” (Bioorg Med Chem Lett, 2008).

How the values were obtained:
[1] = Inhibition of trypsin
Prothrombin = Prothrombin (Homo sapiens, UniProt P00734); assay: Inhibition of thrombin
[2] = Selectivity ratio of IC50 for trypsin to IC50 for thrombin

Compound	IC50 [1] [nM]	IC50 (Prothrombin) [nM]	Ratio IC50 [2]
Cc1cc(-c2ccc(S(=O)(=O)Nn3ccc(C)c(CC(=O)NCc4ccc(N)nc4)c3=O)cc2)c(C)s1		> 44400	
Cc1ccc(C)c(CCNn2ccc(C)c(CC(=O)NCc3ccc(C(=N)N)cc3)c2=O)c1	2140		23
CCc1ccc(S(=O)(=O)Nn2ccc(C)c(CC(=O)NCc3ccnc(N)c3)c2=O)cc1		> 44400	
Cc1ccnc(CNC(=O)Cc2c(C)ccn(NCCc3cc(Cl)ccc3F)c2=O)c1F		> 44400	
Cc1ccn(/N=C/Cc2cccc(C(F)(F)F)c2)c(=O)c1CC(=O)NCc1ccc(N)nc1	> 44400	2710	> 16
COc1ccc(S(=O)(=O)Nn2ccc(C)c(CC(=O)NCc3ccc(N)nc3)c2=O)c(OC)c1	> 4400	> 44400	
CCCc1ccc(S(=O)(=O)Nn2ccc(C)c(CC(=O)NCc3nccc(C)c3F)c2=O)cc1		> 44400	
Cc1ccn(NCS(=O)(=O)c2ccc(Cl)cc2)c(=O)c1CC(=O)NCc1ccnc(N)c1		> 44400	
Cc1ccccc1CCNn1ccc(C)c(CC(=O)NCc2ccc(C(=N)N)cc2)c1=O	963	23	42
Cc1ccnc(CNC(=O)Cc2c(C)ccn(NS(=O)(=O)c3c(C)cccc3Cl)c2=O)c1F	> 44400	> 44400	
Cc1ccnc(CNC(=O)Cc2c(C)ccn(NS(=O)(=O)c3ccccc3S(C)(=O)=O)c2=O)c1F		> 44400	

Results, then the compound that gave them:

IC50 [1] [nM]	IC50 (Prothrombin) [nM]	Ratio IC50 [2]	Compound
2020	1180	1.7	COc1cc(C)ccc1S(=O)(=O)Nn1ccc(C)c(CC(=O)NCc2ccc(C(=N)N)cc2)c1=O
1420	91	16	Cc1ccn(NCCc2ccccc2)c(=O)c1CC(=O)NCc1ccc(C(=N)N)cc1
5770	2470	2.3	Cc1ccn(NS(=O)(=O)c2ccccc2)c(=O)c1CC(=O)NCc1ccc(C(=N)N)cc1
17100	1240	14	Cc1ccn(NS(=O)(=O)c2cccc3ccccc23)c(=O)c1CC(=O)NCc1ccc(C(=N)N)cc1
3410	1850	1.8	COc1ccc(S(=O)(=O)Nn2ccc(C)c(CC(=O)NCc3ccc(C(=N)N)cc3)c2=O)cc1
15600	1050	15	COc1cccc(S(=O)(=O)Nn2ccc(C)c(CC(=O)NCc3ccc(C(=N)N)cc3)c2=O)c1
4130	307	13	COc1cc(Cl)ccc1S(=O)(=O)Nn1ccc(C)c(CC(=O)NCc2ccc(C(=N)N)cc2)c1=O
7130	578	12	Cc1ccc(C)c(S(=O)(=O)Nn2ccc(C)c(CC(=O)NCc3ccc(C(=N)N)cc3)c2=O)c1
15200	1920	7.9	Cc1ccn(NS(=O)(=O)Cc2ccccc2)c(=O)c1CC(=O)NCc1ccc(C(=N)N)cc1
10300	885	12	Cc1ccn(NS(=O)(=O)c2ccc(Cl)c(Cl)c2)c(=O)c1CC(=O)NCc1ccc(C(=N)N)cc1
